Results as given in patent publication US20230075856A1, “CYCLIC SULFAMIDE COMPOUNDS FOR TREATMENT OF HBV” (Assembly Biosciences, Inc., priority 2018, published 2023).

These compounds were tested on HBV viral load production from HepAD38 cells (assay: Viral production from HepAD38 cells: viral load in supernatant by qPCR of the HBV core sequence). Details: 5 days incubation, qPCR of supernatant HBV DNA vs DMSO control, read-out: viral load lowering EC50 (Activity).
Format: cell-based
How it was run: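 HepAD38 cells seeded at 50,000/well in tetracycline-free medium with 2% FBS, treated with compounds (final top concentration 10 μM) for 5 days at 37 °C. Supernatant HBV DNA quantified by TaqMan qPCR of core sequence against HBV DNA standards, relative to DMSO controls; EC50 by four-parameter logistic fit.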

Compound	EC50 [nM]
COC(=O)N1CCC(NC(=O)C2CC(C(=O)Nc3ccc(F)c(Cl)c3)N(CC(F)(F)F)S(=O)(=O)N2)CC1 (single isomer, unassigned; isomer-a) [Compound 893-ISOMER-A, methyl 4-[[5-[(3-chloro-4-fluroo-phenyl)carbamoyl]-1,1-dioxo-6-(2,2,2-triflurooethyl)-1,2,6-thiadiazinane-3-carbonyl]amino]piperidine-1-carboxylate]	< 50
CN1C(C(=O)Nc2ccc(F)c(Cl)c2)CC(C(=O)NCc2ccccc2-n2ccnc2)NS1(=O)=O (single isomer, unassigned; isomer-a) [Compound 910-ISOMER-A, N3-(3-chloro-4-fluoro-phenyl)-N5-[(2-imidaozl-1-ylphenyl)methyl]-2-methyl-1,1-dioxo-1,2,6-thiadiazinane-3,5-dicarboxamide]	< 50
N3-(3-chloro-4-fluoro-phenyl)-N5-[(S)-(2-chlorothiazol-5-yl)-phenyl-methyl]-2-methyl-1,1-dioxo-1,2,6-thiadiazinane-3,5- [1066-ISOMER-B]	< 50
C[C@@H](NC(=O)C1CC(C(=O)Nc2ccc(F)c(Cl)c2)N(C)S(=O)(=O)N1)c1ccc(F)cc1 (single isomer, unassigned; isomer-a) [493-R-ISOMER-A]	< 50
CN1C(C(=O)Nc2ccc(F)c(Cl)c2)CC(C(=O)NCc2cnc(N)s2)NS1(=O)=O (single isomer, unassigned) [1132-ISOMER-B, N5-[(2-aminothiazol-5-yl)methyl]-N3-(3-chloro-4-fluoro-phenyl)-2-methyl-1,1-dioxo-1,2,6-thiadiazinane-3,5-dicarboxamide]	100 to 10000
CCN1C(C(=O)Nc2ccc(F)c(Cl)c2)CC(C(=O)NCc2cnc(C)s2)NS1(=O)=O (single isomer, unassigned) [Compound 888-ISOMER-B, N3-(3-chloro-4-fluoro-phenyl)-2-ethyl-N5-[(2-methylthiazol-5-yl)methyl]-1,1-dioxo-1,2,6-thiadiazinane-3,5-dicarboxamide]	< 50
CN1C(C(=O)Nc2ccc(F)c(Cl)c2)CC(C(=O)NCc2cc(-c3ccccc3Cl)no2)NS1(=O)=O (single isomer, unassigned; isomer-a) [1025-ISOMER-A, N3-(3-chloro-4-fluro-phenyl)-N5-[[3-(2-chlorophenyl)isoxazol-5-yl]methyl]-2-methyl-1,1-dioxo-1,2,6-thiadiazinane-3,5-dicarboxamide]	< 50
CN1C(C(=O)Nc2ccc(F)c(Cl)c2)CC(C(=O)NCc2ccccc2)NS1(=O)=O (single isomer, unassigned) [Compound 718-ISOMER-B, N5-benzyl-N3-(3-chloro-4-fluorophenyl)-2-methyl-1,1-dioxo-1,2,6-thiadiazinane-3,5-dicarboxamide]	100 to 10000
CN1C(C(=O)Nc2ccc(F)c(Cl)c2)CC(C(=O)NCc2cc(-c3ccc(F)cc3)nn2C)NS1(=O)=O (single isomer, unassigned) [1143-ISOMER-B, N3-(3-chloro-4-fluoro-phenyl)-N5-[[5-(4-fluorophenyl)-2-methyl-pyrazol-3-yl]methyl]-2-methyl-1,1-dioxo-1,2,6-thiadiazinane-3,5-dicarboxamide]	< 50

Same assay, conditions: Hepatitis B virus, HePAD38, 120 h, 5 days incubation, qPCR of supernatant HBV DNA vs DMSO control, read-out: viral load lowering EC50 (Activity)

Compound	EC50 [nM]
CN1C(C(=O)Nc2ccc(F)c(Cl)c2)CC(C(=O)NCc2sc(-c3ccccc3)nc2C(F)(F)F)NS1(=O)=O (centres unmarked) [Compound 1063]	< 50
CC(NC(=O)C1CC(C(=O)Nc2ccc(F)c(Cl)c2)N(C)S(=O)(=O)N1)c1cnc(Cl)s1 (centres unmarked) [Compound 1030]	< 50
CN1C(C(=O)Nc2ccc(F)c(Cl)c2)CC(C(=O)NCc2cnc(-c3cccnc3)s2)NS1(=O)=O (centres unmarked) [Compound 911]	50 to 100
CN1C(C(=O)Nc2ccc(F)c(Cl)c2)CC(C(=O)NC2CCN(C(=O)OC(C)(C)C)CC2)NS1(=O)=O (single isomer, unassigned) [Compound 767-ISOMER-A, tert-butyl 4-[[5-[(3-chloro-4-fluoro-phenyl)carbamoyl]-6-methyl-1,1-dioxo-1,2,6-thiadiazinane-3-carbonyl]amino]piperidine-1-carboxylate]	< 50
CN1C(C(=O)Nc2ccc(F)c(Cl)c2)CC(C(=O)NCc2csc(-c3ccc(OCCN4CCCCC4)cc3)n2)NS1(=O)=O (centres unmarked) [Compound 957]	< 50
CN1C(C(=O)Nc2ccc(F)c(Cl)c2)CC(C(=O)NCc2ccc(Cl)cc2)NS1(=O)=O (single isomer, unassigned) [Compound 729-ISOMER-A, N3-(3-chloro-4-fluoro-phenyl)-N5-[(4-chlorophenyl)methyl]-2-methyl-1,1-dioxo-1,2,6-thiadiazinane-3,5-dicarboxamide]	< 50
CC(NC(=O)C1CC(C(=O)Nc2ccc(F)c(Cl)c2)N(C)S(=O)(=O)N1)c1ccccn1 (centres unmarked) [Compound 736]	50 to 100
CN1C(C(=O)Nc2ccc(F)c(Cl)c2)CC(C(=O)NC(c2ccccc2)c2ccccc2)NS1(=O)=O (centres unmarked) [Compound 1014]	< 50
CC(NC(=O)C1CC(C(=O)Nc2ccc(F)c(Cl)c2)N(C)S(=O)(=O)N1)c1cnc(-c2ccccc2Cl)s1 (centres unmarked) [Compound 1019]	< 50
CN1C(C(=O)Nc2ccc(F)c(Cl)c2)CC(C(=O)NCc2ccncc2)NS1(=O)=O (centres unmarked) [Compound 715]	100 to 10000
Cc1nc(-c2ccccc2)sc1CNC(=O)C1CC(C(=O)Nc2ccc(F)c(C#N)c2)N(C)S(=O)(=O)N1 (centres unmarked) [Compound 1136]	< 50
Cc1c(CNC(=O)C2CC(C(=O)Nc3ccc(F)c(Cl)c3)N(C)S(=O)(=O)N2)cnn1C (single isomer, unassigned) [Compound 740-ISOMER-A, N3-(3-chloro-4-fluoro-phenyl)-N5-[(1,5-dimethylpyrazol-4-yl)methyl]-2-methyl-1,1-dioxo-1,2,6-thiadiazinane-3,5-dicarboxamide]	< 50
Cc1cn(-c2ccc(F)cc2F)nc1CNC(=O)C1CC(C(=O)Nc2ccc(F)c(Cl)c2)N(C)S(=O)(=O)N1 (single isomer, unassigned) [1144-ISOMER-A, N3-(3-chloro-4-fluoro-phenyl)-N5-[[1-(2,4-difluorophenyl)-4-methyl-pyrazol-3-yl]methyl]-2-methyl-1,1-dioxo-1,2,6-thiadiazinane-3,5-dicarboxamide]	< 50
Cc1noc(CNC(=O)C2CC(C(=O)Nc3ccc(F)c(Cl)c3)N(C)S(=O)(=O)N2)n1 (centres unmarked) [Compound 685]	100 to 10000
Cc1nc(-c2ccc(OCCN3CCCCC3)cc2)sc1CNC(=O)C1CC(C(=O)Nc2ccc(F)c(Cl)c2)N(C)S(=O)(=O)N1 (centres unmarked) [Compound 1087]	< 50
CN1C(C(=O)Nc2ccc(F)c(Cl)c2)CC(C(=O)NCc2ccccc2)NS1(=O)=O (single isomer, unassigned) [Compound 718-ISOMER-A, N5-benzyl-N3-(3-chloro-4-fluoro-phenyl)-2-methyl-1,1-dioxo-1,2,6-thiadiazinane-3,5-dicarboxamide]	< 50
CN1C(C(=O)Nc2ccc(F)c(Cl)c2)CC(C(=O)NCc2cc(-c3ccccc3)on2)NS1(=O)=O (centres unmarked) [Compound 1149]	< 50
Cc1csc(CNC(=O)C2CC(C(=O)Nc3ccc(F)c(C#N)c3)N(C)S(=O)(=O)N2)n1 (centres unmarked) [Compound 828]	100 to 10000

Compound	EC50 [nM]
CN1C(C(=O)Nc2ccc(F)c(Cl)c2)CC(C(=O)NC2CCN(S(C)(=O)=O)CC2)NS1(=O)=O (centres unmarked) [Compound 710]	100 to 10000
CN1C(C(=O)Nc2ccc(F)c(Cl)c2)CC(C(=O)NCc2nccs2)NS1(=O)=O (centres unmarked) [Compound 684]	100 to 10000
CN1C(C(=O)Nc2ccc(F)c(Cl)c2)CC(C(=O)NC2CCN(c3ccnc(Cl)c3)CC2)NS1(=O)=O (centres unmarked) [Compound 1012]	< 50
C[C@@H](NC(=O)C1CC(C(=O)Nc2ccc(F)c(Cl)c2)N(C)S(=O)(=O)N1)c1ccc(F)cc1 (single isomer, unassigned) [Compound 493-R]	< 50
CN1C(C(=O)Nc2ccc(F)c(Cl)c2)CC(C(=O)NC(c2ccccc2)c2cnc(-c3ccccc3F)s2)NS1(=O)=O (centres unmarked) [Compound 1084]	< 50
Cc1nc(-c2ccccc2)sc1CNC(=O)C1CC(C(=O)Nc2ccnc(Cl)c2)N(C)S(=O)(=O)N1 (centres unmarked) [Compound 1137]	< 50
Cc1cccc(CNC(=O)C2CC(C(=O)Nc3ccc(F)c(C#N)c3)N(C)S(=O)(=O)N2)n1 (centres unmarked) [Compound 831]	100 to 10000
CN1C(C(=O)Nc2ccc(F)c(Cl)c2)CC(C(=O)NCc2cnc(-c3ccc(SCCCO)cc3)s2)NS1(=O)=O (centres unmarked) [Compound 923]	50 to 100
CN1C(C(=O)Nc2ccc(F)c(Cl)c2)CC(C(=O)NC2CCN(c3ccnc(Br)c3)CC2)NS1(=O)=O (single isomer, unassigned) [1036-ISOMER-A, N5-[1-(2-bromo-4-pyridyl)-4-piperidyl]-N3-(3-chloro-4-fluoro-phenyl)-2-methyl-1,1-dioxo-1,2,6-thiadiazinane-3,5-dicarboxamide]	< 50
COc1ccccc1-c1ncc(CNC(=O)C2CC(C(=O)Nc3ccc(F)c(Cl)c3)N(C)S(=O)(=O)N2)s1 (centres unmarked) [Compound 987]	< 50
CN1C(C(=O)Nc2ccc(F)c(Cl)c2)CC(C(=O)NCc2cnc(-c3ccc(C#N)cc3F)s2)NS1(=O)=O (centres unmarked) [Compound 920]	< 50
Cc1nc(-c2ccccc2Cl)sc1C(NC(=O)C1CC(C(=O)Nc2ccc(F)c(Cl)c2)N(C)S(=O)(=O)N1)c1ccccc1 (centres unmarked) [Compound 1100]	50 to 100
CN1C(C(=O)Nc2ccc(F)c(Cl)c2)CC(C(=O)NCc2cn(-c3ccccc3)cn2)NS1(=O)=O (centres unmarked) [Compound 1145]	< 50
CC(=O)N1CCC(NC(=O)C2CC(C(=O)Nc3ccc(F)c(Cl)c3)N(C)S(=O)(=O)N2)CC1 (centres unmarked) [Compound 851]	100 to 10000
C[C@@H](NC(=O)C1CC(C(=O)Nc2ccc(F)c(C#N)c2)N(C)S(=O)(=O)N1)c1ccc(F)cc1 (some centres unmarked) [Compound 776]	100 to 10000
CN1C(C(=O)Nc2ccc(F)c(Cl)c2)CC(C(=O)NCc2cccc(C(F)(F)F)c2)NS1(=O)=O (centres unmarked) [Compound 724]	50 to 100
Cc1nc(Cl)sc1CNC(=O)C1CC(C(=O)Nc2ccc(F)c(Cl)c2)N(C)S(=O)(=O)N1 (centres unmarked) [Compound 1031]	< 50
